Test results from PubChem BioAssay (NCI).
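Values below derive from 48-hour exposures of cells grown in 96-well plates, with endpoints linearly interpolated between the two concentrations bracketing the appropriate inhibition level. TGI: total growth inhibition.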

Key:
Test in all cases: NCI tumour cell line growth inhibition, 48 h
RXF 393 renal = test system: RXF 393 renal
SW-620 colon = test system: SW-620 colon
SF-268 CNS = test system: SF-268 CNS
TK-10 renal = test system: TK-10 renal
U251 CNS = test system: U251 CNS
HCT-15 colon = test system: HCT-15 colon
M14 melanoma = test system: M14 melanoma
PC-3 prostate = test system: PC-3 prostate
IGROV1 ovarian = test system: IGROV1 ovarian
DU-145 prostate = test system: DU-145 prostate
NCI-H460 lung = test system: NCI-H460 lung
CCRF-CEM leukemia = test system: CCRF-CEM leukemia
786-0 renal = test system: 786-0 renal
HCT-116 colon = test system: HCT-116 colon
K-562 leukemia = test system: K-562 leukemia
EKVX NSCLC = test system: EKVX NSCLC
UO-31 renal = test system: UO-31 renal
UACC-62 melanoma = test system: UACC-62 melanoma
SF-295 CNS = test system: SF-295 CNS
HS 578T breast = test system: HS 578T breast
SNB-75 CNS = test system: SNB-75 CNS
COLO 205 colon = test system: COLO 205 colon
ACHN renal = test system: ACHN renal
HL-60(TB) leukemia = test system: HL-60(TB) leukemia
SK-MEL-28 melanoma = test system: SK-MEL-28 melanoma
T-47D breast = test system: T-47D breast
MDA-MB-231 breast = test system: MDA-MB-231 breast
HT29 colon = test system: HT29 colon
SK-OV-3 ovarian = test system: SK-OV-3 ovarian
NCI/ADR-RES ovarian = test system: NCI/ADR-RES ovarian
OVCAR-8 ovarian = test system: OVCAR-8 ovarian
SNB-19 CNS = test system: SNB-19 CNS
CAKI-1 renal = test system: CAKI-1 renal
SR leukemia = test system: SR leukemia
MOLT-4 leukemia = test system: MOLT-4 leukemia
NCI-H226 lung = test system: NCI-H226 lung
A549 NSCLC = test system: A549 NSCLC
UACC-257 melanoma = test system: UACC-257 melanoma
OVCAR-3 ovarian = test system: OVCAR-3 ovarian
SN12C renal = test system: SN12C renal
LOX IMVI melanoma = test system: LOX IMVI melanoma
MDA-MB-435 = test system: MDA-MB-435
NCI-H522 lung = test system: NCI-H522 lung
SK-MEL-2 melanoma = test system: SK-MEL-2 melanoma
MCF7 breast = test system: MCF7 breast
HOP-62 NSCLC = test system: HOP-62 NSCLC
OVCAR-5 ovarian = test system: OVCAR-5 ovarian
KM12 colon = test system: KM12 colon
RPMI-8226 leukemia = test system: RPMI-8226 leukemia
SF-539 CNS = test system: SF-539 CNS
NCI-H23 lung = test system: NCI-H23 lung
A498 renal = test system: A498 renal
MALME-3M melanoma = test system: MALME-3M melanoma
SK-MEL-5 melanoma = test system: SK-MEL-5 melanoma
HCC-2998 colon = test system: HCC-2998 colon
BT-549 breast = test system: BT-549 breast
OVCAR-4 ovarian = test system: OVCAR-4 ovarian

Question: For `c1ccc(Cc2cc(-c3ccccc3)n[nH]2)cc1`, which TGI (RXF 393 renal) is on record?
Answer: 22.1 µM

Question: What about the TGI (SW-620 colon) of the same molecule?
Answer: 28.7 µM

Question: And the TGI (SF-268 CNS)?
Answer: 57.6 µM

Question: And the TGI (TK-10 renal)?
Answer: 42.5 µM

Question: And the TGI (U251 CNS)?
Answer: 27.9 µM

Question: And the TGI (HCT-15 colon)?
Answer: 53 µM

Question: And the TGI (M14 melanoma)?
Answer: 80.1 µM

Question: What about the TGI (PC-3 prostate) of the same molecule?
Answer: 34.2 µM

Question: What about the TGI (IGROV1 ovarian) of the same molecule?
Answer: 34 µM

Question: And the TGI (DU-145 prostate)?
Answer: 26.2 µM

Question: And the TGI (NCI-H460 lung)?
Answer: 33.3 µM

Question: And the TGI (CCRF-CEM leukemia)?
Answer: 27 µM

Question: What about the TGI (786-0 renal) of the same molecule?
Answer: 43.4 µM

Question: What about the TGI (HCT-116 colon) of the same molecule?
Answer: 88.9 µM

Question: What about the TGI (K-562 leukemia) of the same molecule?
Answer: 25.6 µM

Question: And the TGI (EKVX NSCLC)?
Answer: 27.5 µM

Question: What about the TGI (UO-31 renal) of the same molecule?
Answer: 49.8 µM

Question: And the TGI (UACC-62 melanoma)?
Answer: 27.4 µM

Question: What about the TGI (SF-295 CNS) of the same molecule?
Answer: 19.5 µM

Question: And the TGI (HS 578T breast)?
Answer: 36.7 µM

Question: And the TGI (SNB-75 CNS)?
Answer: 15.8 µM

Question: What about the TGI (COLO 205 colon) of the same molecule?
Answer: 31.2 µM

Question: What about the TGI (ACHN renal) of the same molecule?
Answer: 36.4 µM

Question: What about the TGI (HL-60(TB) leukemia) of the same molecule?
Answer: 39.3 µM

Question: What about the TGI (SK-MEL-28 melanoma) of the same molecule?
Answer: 25.8 µM

Question: What about the TGI (T-47D breast) of the same molecule?
Answer: > 100 µM

Question: And the TGI (MDA-MB-231 breast)?
Answer: 25.8 µM

Question: What about the TGI (HT29 colon) of the same molecule?
Answer: 23.2 µM

Question: What about the TGI (SK-OV-3 ovarian) of the same molecule?
Answer: > 100 µM

Question: What about the TGI (NCI/ADR-RES ovarian) of the same molecule?
Answer: 49.4 µM

Question: And the TGI (OVCAR-8 ovarian)?
Answer: 30.9 µM

Question: What about the TGI (SNB-19 CNS) of the same molecule?
Answer: 82.7 µM

Question: What about the TGI (CAKI-1 renal) of the same molecule?
Answer: 32.9 µM

Question: And the TGI (SR leukemia)?
Answer: 32.3 µM

Question: What about the TGI (MOLT-4 leukemia) of the same molecule?
Answer: 23.1 µM

Question: And the TGI (NCI-H226 lung)?
Answer: 33.5 µM

Question: What about the TGI (A549 NSCLC) of the same molecule?
Answer: 26 µM

Question: And the TGI (UACC-257 melanoma)?
Answer: 31.5 µM

Question: What about the TGI (OVCAR-3 ovarian) of the same molecule?
Answer: 16.8 µM

Question: What about the TGI (SN12C renal) of the same molecule?
Answer: 26.3 µM

Question: And the TGI (LOX IMVI melanoma)?
Answer: 28.3 µM

Question: What about the TGI (MDA-MB-435) of the same molecule?
Answer: 22.8 µM

Question: What about the TGI (NCI-H522 lung) of the same molecule?
Answer: 33.2 µM

Question: What about the TGI (SK-MEL-2 melanoma) of the same molecule?
Answer: 31.8 µM

Question: And the TGI (MCF7 breast)?
Answer: 40.3 µM

Question: And the TGI (HOP-62 NSCLC)?
Answer: 92.9 µM

Question: And the TGI (OVCAR-5 ovarian)?
Answer: 47.9 µM

Question: What about the TGI (KM12 colon) of the same molecule?
Answer: 28.8 µM

Question: `O=[N+]([O-])/C(C(Cl)=C(Cl)Cl)=C1\NCCS1` was tested. Which TGI (RXF 393 renal) did it give?
Answer: 58.8 µM

Question: What about the TGI (SW-620 colon) of the same molecule?
Answer: > 100 µM

Question: And the TGI (SF-268 CNS)?
Answer: > 100 µM

Question: And the TGI (TK-10 renal)?
Answer: > 100 µM

Question: What about the TGI (U251 CNS) of the same molecule?
Answer: > 100 µM

Question: What about the TGI (HCT-15 colon) of the same molecule?
Answer: > 100 µM

Question: What about the TGI (M14 melanoma) of the same molecule?
Answer: > 100 µM

Question: What about the TGI (PC-3 prostate) of the same molecule?
Answer: > 100 µM

Question: What about the TGI (IGROV1 ovarian) of the same molecule?
Answer: > 100 µM

Question: What about the TGI (DU-145 prostate) of the same molecule?
Answer: > 100 µM

Question: What about the TGI (NCI-H460 lung) of the same molecule?
Answer: > 100 µM

Question: And the TGI (CCRF-CEM leukemia)?
Answer: 46.2 µM

Question: What about the TGI (786-0 renal) of the same molecule?
Answer: > 100 µM

Question: What about the TGI (RPMI-8226 leukemia) of the same molecule?
Answer: 54.5 µM

Question: What about the TGI (SF-539 CNS) of the same molecule?
Answer: > 100 µM

Question: And the TGI (HCT-116 colon)?
Answer: > 100 µM

Question: And the TGI (K-562 leukemia)?
Answer: 41.4 µM

Question: And the TGI (EKVX NSCLC)?
Answer: > 100 µM

Question: What about the TGI (UO-31 renal) of the same molecule?
Answer: > 100 µM

Question: And the TGI (UACC-62 melanoma)?
Answer: > 100 µM

Question: What about the TGI (SF-295 CNS) of the same molecule?
Answer: > 100 µM

Question: And the TGI (HS 578T breast)?
Answer: > 100 µM

Question: And the TGI (NCI-H23 lung)?
Answer: > 100 µM

Question: And the TGI (A498 renal)?
Answer: > 100 µM

Question: What about the TGI (MALME-3M melanoma) of the same molecule?
Answer: 92.6 µM

Question: What about the TGI (COLO 205 colon) of the same molecule?
Answer: > 100 µM

Question: What about the TGI (ACHN renal) of the same molecule?
Answer: > 100 µM

Question: What about the TGI (HL-60(TB) leukemia) of the same molecule?
Answer: 48.3 µM

Question: What about the TGI (SK-MEL-28 melanoma) of the same molecule?
Answer: > 100 µM

Question: And the TGI (SK-MEL-5 melanoma)?
Answer: > 100 µM

Question: And the TGI (MDA-MB-231 breast)?
Answer: > 100 µM

Question: And the TGI (HT29 colon)?
Answer: > 100 µM

Question: And the TGI (SK-OV-3 ovarian)?
Answer: > 100 µM

Question: What about the TGI (NCI/ADR-RES ovarian) of the same molecule?
Answer: > 100 µM

Question: And the TGI (OVCAR-8 ovarian)?
Answer: > 100 µM

Question: What about the TGI (SNB-19 CNS) of the same molecule?
Answer: > 100 µM

Question: What about the TGI (HCC-2998 colon) of the same molecule?
Answer: > 100 µM

Question: And the TGI (CAKI-1 renal)?
Answer: > 100 µM

Question: What about the TGI (BT-549 breast) of the same molecule?
Answer: > 100 µM

Question: And the TGI (SR leukemia)?
Answer: 46.4 µM

Question: What about the TGI (MOLT-4 leukemia) of the same molecule?
Answer: 62.4 µM

Question: What about the TGI (NCI-H226 lung) of the same molecule?
Answer: > 100 µM

Question: And the TGI (A549 NSCLC)?
Answer: > 100 µM

Question: What about the TGI (OVCAR-4 ovarian) of the same molecule?
Answer: > 100 µM

Question: What about the TGI (UACC-257 melanoma) of the same molecule?
Answer: > 100 µM

Question: And the TGI (OVCAR-3 ovarian)?
Answer: > 100 µM

Question: And the TGI (SN12C renal)?
Answer: > 100 µM

Question: And the TGI (LOX IMVI melanoma)?
Answer: 44.1 µM

Question: What about the TGI (MDA-MB-435) of the same molecule?
Answer: > 100 µM

Question: What about the TGI (MCF7 breast) of the same molecule?
Answer: > 100 µM

Question: And the TGI (HOP-62 NSCLC)?
Answer: > 100 µM

Question: What about the TGI (OVCAR-5 ovarian) of the same molecule?
Answer: > 100 µM

Question: What about the TGI (KM12 colon) of the same molecule?
Answer: > 100 µM
